Measurements published in paper PMC12670426 (Journal of Medicinal Chemistry, 2025).

Experiments:
[1] = Plasma protein binding assay (rapid equilibrium dialysis), mouse plasma; type: in vitro ADME; conditions: fraction bound, read-out: plasma protein binding Fb mouse (converted)
Experimental: (§1) Test compound (10 μM) was incubated at 37 °C for 4 h with mouse, rat, or human plasma (Biowest) in the donor well of a rapid equilibrium dialysis plate (Thermo Fisher Scientific). PBS was placed in the acceptor well. To stop the assay, samples were collected from both wells, and an equal volume of plasma was added to the PBS sample, and vice versa. Proteins were then precipitated by adding three volumes of ice-cold methanol. Samples were mixed gently, kept at −20 °C for 30 min, and then stored at 4 °C overnight. The next day, the samples were centrifuged, and the supernatants were diluted with four volumes of 30% methanol in water. The samples were then analyzed using the Echo-MS system (SCIEX) with MRM transition monitoring, except for compound 3af, which was analyzed by LC–MS/MS as described in the plasma stability assay.

[2] = test system: TGFβ-stimulated LX2 hepatic stellate cells; experiment: Antifibrotic efficacy: profibrotic gene expression in TGFβ-stimulated LX2 hepatic stellate cells (RT-qPCR); type: cell-based, human; conditions: TGFβ-stimulated LX2, 48 h, RT-qPCR normalized to ACTB
Experimental: LX2 cells were then stimulated with transforming growth factor-β1 (TGFβ1; PeproTech, Thermo Fisher Scientific) at 5 ng/mL to induce profibrotic signaling. […] After 48 h of treatment, cells were harvested into 100 μL RA1 buffer, and total RNA was then isolated using the NucleoSpin 96 RNA Kit (Macherey-Nagel, Düren, Germany) and reverse-transcribed into cDNA using the LunaScript RT SuperMix Kit (New England Biolabs, Ipswich, MA, USA). Quantitative real-time PCR (RT-qPCR) was used to determine mRNA expression levels of selected profibrotic markers: αSMA (ACTA2), collagen α-2(I) chain (COL1A2), and fibronectin 1 (FN1), and the housekeeping gene β-actin (ACTB). Amplification was carried out using Luna Universal qPCR Master Mix (New England Biolabs) and primer pairs for individual genes as follows: ACTA2: forward primer: [NT], reverse primer: [NT]; COL1A2: forward primer: [NT], reverse primer: [NT]; FN1: forward primer: [NT], reverse primer: [NT]; ACTB: forward primer: [NT], reverse primer: [NT] (Eurofins Genomics). Data were normalized to ACTB expression and analyzed using the ΔΔCt method.

[3] = Plasma stability assay, mouse plasma; type: in vitro ADME; conditions: 37 °C
Experimental: (§2) Test compounds (10 μM) were incubated with mouse, rat, or human pooled plasma from 50 donors (Biowest) at 37 °C for 20, 60, and 120 min. Reactions were terminated by adding four volumes of ice-cold methanol, followed by vigorous mixing. Samples were kept at −20 °C for 30 min and then stored at 4 °C overnight. The next day, samples were centrifuged, and supernatants were diluted with four volumes of 30% methanol in water. Zero time points were prepared by adding ice-cold methanol to the compound prior to the addition of plasma. Samples were then analyzed on an Echo MS system (SCIEX) using multiple reaction monitoring (MRM). The only exception was compound 3af, which was analyzed by LC–MS/MS (SCIEX 6500 triple quadrupole) due to its weak ionization in Echo-MS.

[4] = Microsomal stability assay, rat liver microsomes; type: in vitro ADME; conditions: pooled liver microsomes, pH 7.4, rat liver microsomes 0.5 mg/mL, NADPH
Experimental: Microsomal stability was determined using 0.5 mg/mL of pooled human, mouse, or rat liver microsomes (Thermo Fisher Scientific) in 90 mM TRIS-Cl buffer (pH 7.4) containing 2 mM NADPH and 2 mM MgCl2. Test compounds (10 μM) were added, and the resulting mixture was incubated at 37 °C for 10, 60, 120, and 180 min. The reactions were terminated by the addition of four volumes of ice-cold methanol, followed by vigorous mixing. The samples were left at −20 °C for 30 min and then stored at 4 °C overnight. The next day, samples were centrifuged, and supernatants were diluted with four volumes of 30% methanol in water. Zero time points were prepared by adding ice-cold methanol to the mixture of compounds and cofactors prior to the addition of microsomes. The samples were then analyzed using the Echo-MS system (SCIEX) with MRM transition monitoring, except for compound 3af, which was analyzed by LC–MS/MS as described in the plasma stability assay.

[5] = test system: LPS-stimulated macrophage-like THP1 cells (TNFα secretion); experiment: Anti-inflammatory potential: TNFα secretion in LPS-stimulated PMA-differentiated THP1 cells; type: cell-based, human; conditions: (+)PMA THP1, 1 μg/mL LPS, 24 h, up to 300 μM
Experimental: Cells were differentiated overnight into macrophage-like phenotypes by treatment with 10 ng/mL PMA and subsequently stimulated with 1 μg/mL lipopolysaccharide (LPS; Invitrogen, Thermo Fisher Scientific) to induce a proinflammatory response. […] After 24 h of LPS and compound exposure, cell culture supernatants were collected and analyzed for TNFα levels using a bead-based multiplex immunoassay (ProcartaPlex Human Basic Kit and TNFα Human ProcartaPlex Simplex Kit, both Invitrogen, Thermo Fisher Scientific). Flow cytometry readout was used as previously described. TNFα concentrations were calculated using a standard curve generated in GraphPad Prism 10 (GraphPad Software, San Diego, CA). Cells or beads from screening assays prepared for flow cytometry were analyzed by the CytoFlex S instrument (Beckman Coulter). Data acquisition was performed using CytExpert software (v2.5, Beckman Coulter). Debris was excluded by forward and side scatter gating, followed by doublet exclusion. Data were analyzed using FlowJo software (v10, BD Biosciences).

[6] = Plasma protein binding assay (rapid equilibrium dialysis), rat plasma; type: in vitro ADME; conditions: fraction bound, read-out: plasma protein binding Fb rat (converted)
Experimental: as §1

[7] = Plasma stability assay, rat plasma; type: in vitro ADME; conditions: 37 °C
Experimental: as §2

Cytotoxicity assay, LX2 = type: cell-based; conditions: human, LX2 cells, viability dye, flow cytometry
Experimental: To evaluate in vitro cytotoxicity and support its potential application in inflammatory and fibrotic disease models, the following panel of cell lines, representing the relevant biological systems, was used: HEK293, HepG2, THP1, Jurkat E6.1, and LX2. HEK293, HepG2, and Jurkat E6.1 cells were seeded at 400,000 cells/mL, THP1 cells at 500,000 cells/mL, and LX2 cells at 200,000 cells/mL in 96-well plates (cell culture-treated, VWR) in 100 μL/well. Cells were treated with the tested compounds in a serial dilution (300, 100, 33.3, 11.1, and 3.7 μM) for 24 h. Untreated cells served as negative controls to establish the baseline viability threshold. Cell viability was assessed using a viability dye (Zombie Violet Fixable Viability Kit, BioLegend) following the manufacturer’s instructions and analyzed by flow cytometry (see below).
Cells or beads from screening assays prepared for flow cytometry were analyzed by the CytoFlex S instrument (Beckman Coulter). Data acquisition was performed using CytExpert software (v2.5, Beckman Coulter). Debris was excluded by forward and side scatter gating, followed by doublet exclusion. Data were analyzed using FlowJo software (v10, BD Biosciences).

CC(=O)N(c1cc(C(=O)O)cc2[nH]ccc12)[C@@H]1O[C@H](CO)[C@@H](S[C@@H]2O[C@H](CO)[C@H](O)[C@H](n3cc(-c4cccc(F)c4)nn3)[C@H]2O)[C@H](O)[C@H]1O [Compound 11, N-[4-S-(3-Deoxy-3-(4-(3-fluorophenyl)-1H-1,2,3-triazol-1-yl)-β-D-galactopyranosyl)-4-thio-β-D-glucopyranosyl]-N-(6-carboxy-1H-indol-4-yl)acetamide]
fraction unbound at 4 h, 10 μM [1]: 0.57 | ACTA2 mRNA expression [2]: dose-dependent downregulation | COL1A2 mRNA expression [2]: dose-dependent downregulation | FN1 mRNA expression [2]: dose-dependent downregulation | remaining at 2 h, 10 μM [3]: 100 ± 3% | microsomal CLint at 10 μM [4]: < 2 µL/min/mg | LPS-induced TNFα secretion [5]: no suppression | fraction unbound at 4 h, 10 μM [6]: 0.1 | remaining at 2 h, 10 μM [7]: 87 ± 6% | CC50 at 24 h (Cytotoxicity assay, LX2): > 300 µM
